Earlier results on eight compounds are cited in patent publication US20230226079A1, “METHODS AND COMPOSITIONS FOR TREATMENT OF SOLID TUMORS” (Saint Louis University, priority 2022, published 2023).

The conditions of series [1]: in vivo; cited from earlier work.
The conditions of series [2]: literature; cited from earlier work.
A further series has as its system different models. To be noted: cited from earlier work.

As for `COc1cc2c(Oc3ccc(NC(=O)C4(C(=O)Nc5ccc(F)cc5)CC4)cc3F)ccnc2cc1OCCCN1CCOCC1` [Foretinib], in series [1], the adverse side effects result was “fatigue, hypertension, and gastrointestinal toxicities”.
For `CN1CCN(C2CCN(C(=O)Nc3cc(Oc4ccc(NC(=O)C5(C(=O)Nc6ccc(F)cc6)CC5)c(F)c4)ccn3)CC2)CC1` [Golvatinib], the adverse side effects result in series [1] is “supraventricular tachycardia, convulsion, and pulmonary embolism”.
`CO[C@H]1C=C2[C@@H](CC[C@H](O[C@@H]3O[C@H](CO)[C@@H](O)[C@@H](O)[C@H]3O)C2(C)C)[C@]2(C)CC[C@]3(C)[C@@H]([C@H](C)C/C=C/C(C)(C)O)CC[C@@]3(C)[C@H]12` [Karaviloside III]: the “Reported Biology” value in series [2] is “cytotoxic activity”.
As for `C[C@H](C/C=C/C(C)(C)O)[C@H]1CC[C@@]2(C)[C@@H]3[C@@H](O[C@@H]4O[C@H](CO)[C@@H](O)[C@H](O)[C@H]4O)C=C4[C@@H](CC[C@H](O)C4(C)C)[C@]3(C=O)CC[C@]12C` [Momordicoside L], the “Reported Biology” value in series [2] was “Weak α-glucosidase”.
For the compound `C=C(C)/C=C/C[C@@H](C)[C@H]1CC[C@@]2(C)[C@@H]3[C@@H](O)C=C4[C@@H](CC[C@H](O)C4(C)C)[C@]3(C=O)CC[C@]12C` [kuguacin J], in the series on different models, the anticancer effect entry is “showed anticancer effect”.
For Karayiloside XI, in series [2], the “Reported Biology” value is “Antidiabetic”.
Consider Sacranoside A, for which the “Reported Biology” value in series [2] is “nitric oxide inhibitory”.
With eleostearic acids, in the series with different models, the anticancer effect entry is listed as “showed anticancer effect”.
